Holding throughout (format): in vivo, Wistar Rats
Data set [1] in a line: Rat body weight in global ischemia reperfusion study. The conditions noted are these: mean ± SEM, n = 6; for Body Weight, Basal: male Wistar rats; for Body Weight, Week 01: oral daily dosing (Standard 9.3 mg/kg, NBP 49.6 mg/kg, NR 31 mg/kg).
Data set [2] in a line: Rat feed consumption in global ischemia reperfusion study. The conditions noted are these: oral daily dosing (Standard 9.3 mg/kg, NBP 49.6 mg/kg, NR 31 mg/kg).
The test system of another data set is TNF alpha. Briefly: Rat TNF alpha level after global ischemia reperfusion. To be noted: oral 10 days (Std 9.3 mg/kg, NBP 49.6 mg/kg, NR 31 mg/kg); 30 mins global ischemia on 7th day, 72 hrs reperfusion; mean ± SEM, n = 6; I/R control 172.17 ± 6.35.
A further data set has as its system Interleukin - 6. Briefly: Rat Interleukin-6 level after global ischemia reperfusion. To be noted: oral 10 days (Standard 9.3 mg/kg, NBP 49.6 mg/kg, NR 31 mg/kg); 30 mins global ischemia on 7th day, 72 hrs reperfusion; mean ± SEM, n = 6; I/R control 121.83 ± 1.65.

With `CCCCC1OC(=O)c2ccccc21` (racemic) [3-N-butylpthalide (NBP), 3-N-butylphthalide], in data set [1], the “Body Weight, Basal” value is recorded as 214.50 ± 1.12 gm and the “Body Weight, Week 01” value came out at 224.50 ± 0.76 gm. For the same compound, the “Feed Consumption, Week 01” value in data set [2] is on record as 99.57 ± 1.00 gm. In the data set with TNF alpha, the “TNF alpha Level” value is 132.00 ± 2.34 pg/mL. Besides, the “Interleukin - 6 Levels” value in the data set with Interleukin - 6 was 85.39 ± 0.62 pg/mL.
In the same order, the values of `NC(=O)c1ccc[n+]([C@@H]2O[C@H](CO)[C@@H](O)[C@H]2O)c1.[Cl-]` [Nicotinamide Riboside chloride (NR), nicotinamide riboside chloride] are 215.00 ± 1.46 gm, 224.83 ± 1.08 gm, 99.71 ± 1.04 gm, 160.33 ± 4.79 pg/mL and 109.56 ± 0.27 pg/mL.

For the origin of these results see patent US11925195B2, “Synergistic nutritional compositions for treating cerebrovascular diseases” (CELAGENEX RESEARCH (INDIA) PVT. LTD., priority 2019, dated 2024).
